In US11926579B1, “8-(4-methoxybenzylideneamino)naphthalene-1,3-disulfonic acid as an antioxidant compound” (KING FAISAL UNIVERSITY, priority 2023, dated 2024):

Assay: DPPH radical scavenging antioxidant test
Format: biochemical
Settings: for Inhibition (radical scavenging inhibition) / A (absorbance): DPPH 0.2 mL (0.75 mM), compound 3 μM in ethanol, 30 min incubation in the dark; for A (absorbance): read at 517 nm against a blank
Protocol: The antioxidant properties of the 8-(4-methoxybenzylideneamino)naphthalene-1,3-disulfonic acid were studied by adding 0.2 mL DPPH (0.75 mM)) to compound 8-(4-methoxybenzylideneamino) naphthalene-1,3 -di sulfonic acid (III) (3 μM) in ethanol. After 30 min of incubation in the dark, the absorbance was read against a blank at 517 nm. Ascorbic acid (vitamin C) was used as standard antioxidants (positive control). A blank sample was prepared by 0.2 ml of DPPH in 3 ml ethanol. A negative control sample was run using ethanol instead of the sample. The radical scavenging inhibition was calculated using the following equation: […]

| Compound | Inhibition (radical scavenging inhibition) (517 nm) [%] | A (absorbance) | antioxidant potential (DPPH), in words (DPPH in vitro test, 517 nm, vitamin C as positive control) |
| --- | --- | --- | --- |
| COc1ccc(/C=N/c2cccc3cc(S(=O)(=O)O)cc(S(=O)(=O)O)c23)cc1 [Product III, 8-(4-methoxybenzylideneamino)naphthalene-1,3-disulfonic acid] | 50 | 0.22 | high potential as an antioxidant compared to vitamin C |
| O=C1O[C@H]([C@@H](O)CO)C(O)=C1O [vit c, Ascorbic acid, reference compound] | 74 | 0.12 | – |
